Data reported in patent publication US9981929B2, “Method for prevention of premature polymerization” (NITTO BELGIUM NV, priority 2015, dated 2018).

What was measured:
[1] = Kugelrohr distillation (purification) of SMA in the presence of the inhibitors; conditions: 500 ppm inhibitor, 10 g SMA, kugelrohr 240 °C, about 0.2 mbar; visual viscosity increase
Protocol: The temperature of the kugelrohr is set to 240° C. The distillation starts when the vacuum reached about 0.2 mbar. Polymerization in the rotating pitch is evaluated by visually determining increased viscosity.
The inhibitors were added as such to the SMA prior to the distillation, no methanolic solution as described earlier is used.

[2] = Synthesis of SMA via transesterification in the presence of the inhibitors; conditions: 500 ppm inhibitor
Protocol: SMA is prepared via transesterification in the presence of the indicated inhibitors. A two-neck flask, equipped with a Dean-Stark apparatus and a reflux condenser, is charged with three equivalents of methyl methacrylate, one equivalent of stearyl/palmityl alcohol and 500 ppm of inhibitor. Air is bubbled through the solution using a needle, septum and vacuum pump, set at 900 mbar.
The methyl methacrylate/methanol azeotrope is collected and at the end of the reaction any remaining methyl methacrylate is removed under reduced pressure at the rotavapor.

[3] = end of reaction after removal of methanol and excess methyl methacrylate

| Properties end (precipitate / solubility of catalyst/inhibitor) [2, 3] | Properties start (solubility of catalyst/inhibitor) ([2]; start of reaction) | Compound | Polymerization [1] | Properties end (color of the reaction mixture) [2, 3] | Properties start (color of the reaction mixture) ([2]; start of reaction) |
| --- | --- | --- | --- | --- | --- |
|  |  | CCCCCCCCS(=O)(=O)[O-].CN(C)c1ccc2nc3ccc(N(C)C)cc3[s+]c2c1 [Inhibitor I-1, octanesulfonate salt of methylene blue] | no |  |  |
|  |  | CCCCCCCCS(=O)(=O)[O-].CN(C)c1ccc2nc3ccc(N(C)C)cc3[s+]c2c1.[Cl-].[Na+] [Inhibitor I-1a] | no |  |  |
|  |  | CCCCCCCCCCCCCCCCS(=O)(=O)[O-].CN(C)c1ccc2nc3ccc(N(C)C)cc3[s+]c2c1.[Cl-].[Na+] [Inhibitor I-2a] | no | brown liquid very | dark blue solution |
|  |  | CC(C)(C)c1cc(OCCCS(=O)(=O)[O-])c(C(C)(C)C)cc1O.CN(C)c1ccc2nc3ccc(N(C)C)cc3[s+]c2c1 [Inhibitor I-4] | no | purple liquid | deep purple solution |
|  |  | CN(C)c1ccc2nc3ccc(=[N+](C)C)cc-3sc2c1 [MB, methylene blue] |  | brown liquid | dark blue solution |
| precipitate (catalyst) | homogeneous | COc1ccc(O)cc1 [MeHQ, 4-methoxyphenol] |  | yellow liquid white | colorless solution |
